Assay results reported in ChEMBL document CHEMBL3301562, “MMV Box screening against Plasmodium falciparum protein kinases and aminoacyl tRNA synthetases”.

What was measured:
Type in all cases: functional
Proline--tRNA ligase = target: T1, Proline--tRNA ligase (Plasmodium falciparum (isolate 3D7), UniProt Q8I5R7); assay: MMV: ProRS recombinant Plasmodium falciparum Prolyl-tRNA-synthetase, assay with yeast tRNA, ATP, and proline and 3 uM MMV malaria box compound, assay read out with kinase glo as % inhibition.
T1 sequence (Q8I5R7 whole entry): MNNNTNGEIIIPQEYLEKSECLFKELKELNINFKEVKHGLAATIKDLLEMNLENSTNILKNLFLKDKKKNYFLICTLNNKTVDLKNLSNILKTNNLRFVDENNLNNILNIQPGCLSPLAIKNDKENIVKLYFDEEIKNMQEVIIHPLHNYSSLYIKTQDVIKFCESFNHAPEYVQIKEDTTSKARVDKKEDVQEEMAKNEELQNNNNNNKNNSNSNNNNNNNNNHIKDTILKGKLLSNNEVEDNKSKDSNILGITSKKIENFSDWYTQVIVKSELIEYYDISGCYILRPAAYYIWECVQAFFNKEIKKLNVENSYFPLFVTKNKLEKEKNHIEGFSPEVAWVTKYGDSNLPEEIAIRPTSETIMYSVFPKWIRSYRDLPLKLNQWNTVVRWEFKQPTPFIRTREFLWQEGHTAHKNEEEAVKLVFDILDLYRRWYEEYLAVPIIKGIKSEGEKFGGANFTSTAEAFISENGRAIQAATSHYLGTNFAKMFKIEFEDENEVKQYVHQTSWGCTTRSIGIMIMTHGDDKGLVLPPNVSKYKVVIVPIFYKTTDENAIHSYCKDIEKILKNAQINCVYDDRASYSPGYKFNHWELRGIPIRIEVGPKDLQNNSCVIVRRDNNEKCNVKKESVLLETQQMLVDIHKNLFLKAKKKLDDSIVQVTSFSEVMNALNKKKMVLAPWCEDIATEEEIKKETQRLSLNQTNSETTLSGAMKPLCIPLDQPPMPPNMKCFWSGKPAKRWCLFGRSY

[1] = target: T2, Putative uncharacterized protein pk7 (Plasmodium falciparum, UniProt O96214); assay: Final concentrations were 1 uM ATP, 2 mM DTT, 20 mM MgCl2, 2 mM MnCl2, 0.01% BSA, and 6 ug/ml PK7, in a buffer of 20 mM Tris-HCl (pH 7.5). The enzyme itself was the only substrate present (since autophosphorylation occurs); 100 uM 1NA-PP1 was used as a control inhibitor. Incubation time was 3 hours.
T2 sequence (O96214 whole entry): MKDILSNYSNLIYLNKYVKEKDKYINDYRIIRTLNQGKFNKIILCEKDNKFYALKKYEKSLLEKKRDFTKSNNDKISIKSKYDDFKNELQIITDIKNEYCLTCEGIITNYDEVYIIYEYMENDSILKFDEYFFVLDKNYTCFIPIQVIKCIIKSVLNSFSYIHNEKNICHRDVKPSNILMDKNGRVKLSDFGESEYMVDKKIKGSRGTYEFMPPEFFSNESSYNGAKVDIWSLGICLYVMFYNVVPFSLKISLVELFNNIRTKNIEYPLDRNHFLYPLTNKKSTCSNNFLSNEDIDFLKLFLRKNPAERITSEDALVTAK

[2] = target: T3, Cdk-related protein kinase 6 (Plasmodium falciparum, UniProt O77239); assay: Final concentrations were 1.5 uM ATP, 5 mM MnCl2, and 15 ug/ml PK6 in a buffer of 100 mM Tris-HCl (pH 7.5). 50 ug/mL MBP was provided as the substrate; 10 uM staurosporine was used as a control inhibitor. Incubation time was 3 hours and 40 minutes.The catalytic activity of each kinase was considered proportional to ATP consumed, as determined from measurements of residual [ATP] with the luciferase-based reagent Kinase-Glo (Promega) following incubation. Luminescence (proportional to residual [ATP]) was measured on the plate readers FLx800 (BioTek Instruments, Winooski, VT, USA) and MicroBeta2.
T3 sequence (O77239 whole entry): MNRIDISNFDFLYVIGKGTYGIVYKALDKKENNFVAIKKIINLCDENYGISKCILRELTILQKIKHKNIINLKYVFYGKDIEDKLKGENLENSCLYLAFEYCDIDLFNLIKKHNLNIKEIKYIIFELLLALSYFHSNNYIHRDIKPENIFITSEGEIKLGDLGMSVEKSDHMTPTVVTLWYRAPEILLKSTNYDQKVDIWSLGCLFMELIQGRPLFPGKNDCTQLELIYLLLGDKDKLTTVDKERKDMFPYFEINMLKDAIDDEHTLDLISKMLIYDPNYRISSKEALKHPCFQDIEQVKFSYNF

[3] = target: Calcium-dependent protein kinase 1 (Plasmodium falciparum, UniProt P62344); assay: MMV: CDPK1 Protein kinase inhibition assay using recombinant PfCDPK1, syntide 2 peptide substrate, ATP and KinaseGlo to measure % inhibition at 1 uM MMV box compound.
[4] = target: T4, Calcium-dependent protein kinase 4 (Plasmodium falciparum (isolate 3D7), UniProt Q8IBS5); assay: MMV: CDPK4 Protein kinase inhibition assay using recombinant PfCDPK4, syntide2 peptide substrate, ATP and KinaseGlo to measure % inhibition at 1 uM MMV box compound.
T4 sequence (Q8IBS5 whole entry): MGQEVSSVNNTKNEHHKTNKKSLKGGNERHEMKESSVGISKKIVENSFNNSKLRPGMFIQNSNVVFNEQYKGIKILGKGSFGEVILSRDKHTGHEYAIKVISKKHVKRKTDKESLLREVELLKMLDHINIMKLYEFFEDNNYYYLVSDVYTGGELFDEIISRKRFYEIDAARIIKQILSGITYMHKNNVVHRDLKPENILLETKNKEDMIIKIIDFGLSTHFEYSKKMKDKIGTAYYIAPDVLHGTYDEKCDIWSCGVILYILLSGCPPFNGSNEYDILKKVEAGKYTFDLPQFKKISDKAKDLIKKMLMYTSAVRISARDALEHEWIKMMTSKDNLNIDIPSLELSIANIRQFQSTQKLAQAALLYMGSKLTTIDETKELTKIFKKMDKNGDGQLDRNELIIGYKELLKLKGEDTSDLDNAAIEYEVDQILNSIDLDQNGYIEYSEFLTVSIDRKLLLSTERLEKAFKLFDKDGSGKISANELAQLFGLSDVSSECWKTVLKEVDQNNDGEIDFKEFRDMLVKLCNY

Lysine--tRNA ligase = Lysine--tRNA ligase (Plasmodium falciparum (isolate 3D7), UniProt Q8IDJ8); assay: MMV: KRS recombinant Plasmodium falciparum Lysyl-tRNA-synthetase, assay with yeast tRNA, ATP, and lysine and 3 uM MMV malaria box compound, assay read out with kinase glo as % inhibition.
[5] = target: T5, Mitogen-activated protein kinase (Plasmodium falciparum, UniProt Q25917); assay: Final concentrations were 1 uM ATP, 0.5 mM DTT, 1 mM MgCl2, 0.5 mg/mL BSA, and 10 ug/ml MAP2 in a buffer of 50 mM HEPES (pH 7.0). 0.5 mg/mL histone III-S served as the substrate (13); 100 uM AMP-PNP, an ATP analog, was used as a control inhibitor. Incubation time was 4 hours.
T5 sequence (Q25917 whole entry): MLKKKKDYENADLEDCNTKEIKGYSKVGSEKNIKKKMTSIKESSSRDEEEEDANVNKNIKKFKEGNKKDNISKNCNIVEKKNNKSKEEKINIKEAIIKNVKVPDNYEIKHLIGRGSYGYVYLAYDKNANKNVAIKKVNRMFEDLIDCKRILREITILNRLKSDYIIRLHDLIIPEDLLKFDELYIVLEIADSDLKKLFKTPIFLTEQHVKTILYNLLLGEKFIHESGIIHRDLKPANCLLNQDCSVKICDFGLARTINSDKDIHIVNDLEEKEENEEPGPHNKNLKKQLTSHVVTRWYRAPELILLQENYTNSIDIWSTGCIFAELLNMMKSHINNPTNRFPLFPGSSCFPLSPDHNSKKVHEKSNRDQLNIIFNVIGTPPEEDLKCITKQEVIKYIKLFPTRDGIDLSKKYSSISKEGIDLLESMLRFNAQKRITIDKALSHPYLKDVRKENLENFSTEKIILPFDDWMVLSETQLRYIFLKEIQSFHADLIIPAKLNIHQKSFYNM

Chain of Lysine--tRNA ligase (Q8IDJ8 whole entry): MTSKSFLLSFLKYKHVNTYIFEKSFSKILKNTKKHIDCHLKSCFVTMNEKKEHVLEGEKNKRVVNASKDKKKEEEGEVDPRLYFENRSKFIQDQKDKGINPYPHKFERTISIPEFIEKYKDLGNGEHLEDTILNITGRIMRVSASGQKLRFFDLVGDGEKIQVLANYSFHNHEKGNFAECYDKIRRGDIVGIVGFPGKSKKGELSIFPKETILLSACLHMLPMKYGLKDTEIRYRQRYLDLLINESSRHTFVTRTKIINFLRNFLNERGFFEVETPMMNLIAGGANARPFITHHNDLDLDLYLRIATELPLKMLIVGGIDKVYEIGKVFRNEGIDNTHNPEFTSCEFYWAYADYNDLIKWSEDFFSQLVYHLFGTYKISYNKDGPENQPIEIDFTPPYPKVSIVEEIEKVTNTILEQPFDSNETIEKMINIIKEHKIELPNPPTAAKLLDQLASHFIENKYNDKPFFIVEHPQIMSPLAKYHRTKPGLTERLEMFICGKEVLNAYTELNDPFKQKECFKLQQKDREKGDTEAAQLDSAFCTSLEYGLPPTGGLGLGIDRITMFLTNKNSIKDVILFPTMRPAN
Chain of Calcium-dependent protein kinase 1 (P62344 whole entry): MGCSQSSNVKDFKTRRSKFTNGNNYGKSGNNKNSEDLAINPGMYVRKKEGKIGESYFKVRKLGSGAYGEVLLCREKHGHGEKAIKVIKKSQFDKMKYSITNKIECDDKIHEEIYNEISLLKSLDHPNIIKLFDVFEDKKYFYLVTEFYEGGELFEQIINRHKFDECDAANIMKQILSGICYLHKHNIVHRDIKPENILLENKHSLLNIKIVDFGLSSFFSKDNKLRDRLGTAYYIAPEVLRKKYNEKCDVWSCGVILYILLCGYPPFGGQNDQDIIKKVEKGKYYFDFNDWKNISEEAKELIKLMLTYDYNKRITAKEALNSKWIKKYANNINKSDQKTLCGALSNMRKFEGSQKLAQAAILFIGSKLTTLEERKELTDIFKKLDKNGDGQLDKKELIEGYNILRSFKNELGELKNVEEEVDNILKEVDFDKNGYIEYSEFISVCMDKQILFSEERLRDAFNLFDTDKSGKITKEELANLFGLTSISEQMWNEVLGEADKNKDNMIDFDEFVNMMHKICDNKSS

| SMILES | IC50 (Proline--tRNA ligase) | IC50 [1] | IC50 [2] | IC50 [3] | IC50 [4] | IC50 (Lysine--tRNA ligase) | IC50 [5] |
| --- | --- | --- | --- | --- | --- | --- | --- |
| Nc1nc(Nc2cccc(F)c2)nc2ccccc12 | > 2.5 µM | > 1 µM | > 1 µM | > 1 µM | > 1 µM | > 2.5 µM | > 1 µM |
| COc1ccc(/C=C2/SC(=Nc3ccccc3)NC2=O)cc1 | > 2.5 µM | > 1 µM | > 1 µM | > 1 µM | > 1 µM | > 2.5 µM | > 1 µM |
| O=C(NC1CCN(Cc2ccccc2)CC1)c1cc2nc(-c3ccc(Cl)s3)cc(C(F)(F)F)n2n1 | > 2.5 µM | > 1 µM | > 1 µM | > 1 µM | > 1 µM | > 2.5 µM | > 1 µM |
| Cc1sc(NC(=O)c2ccccc2)c(C(c2cccs2)N2CCN(c3ccccc3)CC2)c1C (stereo not given) | > 2.5 µM | > 1 µM | > 1 µM | > 1 µM | > 1 µM | > 2.5 µM | > 1 µM |
| N#Cc1nc(Cc2cccc3ccccc23)oc1N1CCN(C(c2ccccc2)c2ccccc2)CC1 | > 2.5 µM | > 1 µM | > 1 µM | > 1 µM | > 1 µM | > 2.5 µM | > 1 µM |
| COc1cccc(Nc2nc(N)c3ccccc3n2)c1 | > 2.5 µM | > 1 µM | > 1 µM | > 1 µM | > 1 µM | > 2.5 µM | > 1 µM |
| Cc1ccc(C(=O)c2oc3ccc4c(C)cc(=O)oc4c3c2C)cc1 | > 2.5 µM | > 1 µM | > 1 µM | > 1 µM | > 1 µM | > 2.5 µM | > 1 µM |
| CCCCCCc1cc2cc(-c3csc(C=Cc4ccccc4)n3)c(=O)oc2cc1O | > 2.5 µM | > 1 µM | > 1 µM | > 1 µM | > 1 µM | > 2.5 µM | > 1 µM |
| COc1ccc(CNC(=O)c2cc3c(=O)n4ccccc4nc3n(CCc3ccccc3)c2=N)cc1 | > 2.5 µM | > 1 µM | > 1 µM | > 1 µM | > 1 µM | > 2.5 µM | > 1 µM |
| Cn1c(=O)n(C)c2cc(CNCCNc3ccnc4cc(Cl)ccc34)ccc21 | > 2.5 µM | > 1 µM | > 1 µM | > 1 µM | > 1 µM | > 2.5 µM | > 1 µM |
